pIC50, pKd, pKi: −log10 of the molar value. In brackets after ≈: the same amount, converted by molar mass. Bridge positions count the residues as written; N and C are the ends. Square brackets hold non-standard residues; d marks the D form. Peptide text beside a SMILES is read from it. * marks the point of attachment. Gly(octyl) = CCCCCCCC[C@H](N)C(=O)O; X1 = CC[C@@H](C)CCCCC(=O)*; Octanoyl = CCCCCCCC(=O)*; Dab = NCC[C@H](N)C(=O)O
Legend:
Pseudomonas aeruginosa [1] = experiment: Inhibition of biofilm formation in Pseudomonas aeruginosa assessed as reduction in biofilm formation; type: functional, organism-based
Pseudomonas aeruginosa [2] = experiment: Antibacterial activity against Pseudomonas aeruginosa PAO1 infected in Caenorhabditis elegans worms assessed as worms survival at 50 uM measured after 24 hrs; type: functional
Pseudomonas aeruginosa [3] = experiment: Antibacterial activity against multidrug resistant Pseudomonas aeruginosa assessed as reduction in bacterial growth; type: functional
Pseudomonas aeruginosa [4] = experiment: Antagonist activity at Pseudomonas aeruginosa MvfR at 15 uM relative to control; parameters: scale not given: the % may be the effect or the level left; conditions: filed as antagonist
Pseudomonas aeruginosa [5] = experiment: Antibiofilm activity against Pseudomonas aeruginosa assessed as reduction in biofilm formation; type: functional, organism-based
Pseudomonas aeruginosa [6] = experiment: Antibiofilm activity against Pseudomonas aeruginosa assessed as reduction in biofilm formation at 100 uM; type: functional; parameters: scale not given: the % may be the effect or the level left
Pseudomonas aeruginosa [7] = experiment: Inhibition of Pseudomonas aeruginosa PAO1 Pyocyanin at 440 uM relative to control
[8] = target: T1, Transcriptional activator protein LasR (Pseudomonas aeruginosa (strain ATCC 15692 / PAO1 / 1C / PRS 101 / LMG12228)) (UniProt P25084); experiment: Inhibition of Pseudomonas aeruginosa PAO1 LasR at 440 uM relative to control
T1 sequence (whole entry): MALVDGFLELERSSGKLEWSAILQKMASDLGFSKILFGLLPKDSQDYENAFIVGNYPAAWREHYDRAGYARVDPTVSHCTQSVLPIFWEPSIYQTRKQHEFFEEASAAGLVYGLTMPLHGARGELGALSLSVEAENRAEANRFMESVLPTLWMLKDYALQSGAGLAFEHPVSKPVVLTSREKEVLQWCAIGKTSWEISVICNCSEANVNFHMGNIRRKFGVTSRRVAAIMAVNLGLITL

Pseudomonas aeruginosa [9] = experiment: Antibacterial activity against Pseudomonas aeruginosa PAO1 infected in Caenorhabditis elegans worms assessed as worms survival rate at 880 uM measured after 72 hrs; type: functional
Pseudomonas aeruginosa [10] = experiment: Antimicrobial activity against polymyxin resistant Pseudomonas aeruginosa assessed as reduction in bacterial growth; type: functional
[11] = target: T1, Transcriptional activator protein LasR (Pseudomonas aeruginosa (strain ATCC 15692 / PAO1 / 1C / PRS 101 / LMG12228)); experiment: Inhibition of Pseudomonas aeruginosa PAO1 LasR at 200 uM relative to control
[12] = Half life in mouse; type: ADME, organism-based; conditions: in vivo
[13] = target: T2, PA-I galactophilic lectin (Pseudomonas aeruginosa (strain ATCC 15692 / PAO1 / 1C / PRS 101 / LMG12228), UniProt Q05097); experiment: (§1) Binding affinity to Pseudomonas aeruginosa PAO1 LecA assessed as dissociation constant
T2 sequence (Q05097 whole entry): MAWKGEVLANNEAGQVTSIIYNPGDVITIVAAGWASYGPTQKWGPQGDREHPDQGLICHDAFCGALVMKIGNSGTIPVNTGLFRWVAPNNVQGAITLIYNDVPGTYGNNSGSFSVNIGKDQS

Pseudomonas aeruginosa [14] = experiment: Antimicrobial activity against Pseudomonas aeruginosa infected in mouse pneumonia model administered twice a day measured after 48 hrs; type: functional
[15] = target: T3, PA-I galactophilic lectin (Pseudomonas aeruginosa (strain ATCC 15692 / PAO1 / 1C / PRS 101 / LMG12228)) (UniProt Q05097); experiment: as §1
T3 sequence (whole entry): T2 sequence (Q05097 whole entry)

Pseudomonas aeruginosa [16] = experiment: Downregulation of c-di-GMP level in Pseudomonas aeruginosa PA14 planktonic cells harboring wspR gene mutation at 50 uM incubated for 24 hrs by HPLC analysis; type: functional
Pseudomonas aeruginosa [17] = experiment: Inhibition of biofilm formation in Pseudomonas aeruginosa PAO1 assessed as reduction in biofilm formation at 250 uM measured for 2 hrs by scanning confocal laser microscopic analysis; type: functional
Pseudomonas aeruginosa [18] = experiment: Inhibition of Pseudomonas aeruginosa PAO1 Pyocyanin at 250 uM relative to control
[19] = target: Elastase (Pseudomonas aeruginosa (strain ATCC 15692 / PAO1 / 1C / PRS 101 / LMG12228)) (UniProt P14756); experiment: Inhibition of Pseudomonas aeruginosa PAO1 elastase at 250 uM relative to control
Pseudomonas aeruginosa [20] = experiment: Inhibition of Pseudomonas aeruginosa PAO1 Rhamnolipid at 250 uM by spectrophotometrical analysis relative to control
[21] = Inhibition of bacterial FabH; parameters: species or system Bacteria
Elastase [22] = target: T4, Elastase (Pseudomonas aeruginosa (strain ATCC 15692 / PAO1 / 1C / PRS 101 / LMG12228), UniProt P14756); experiment: Inhibition of Pseudomonas aeruginosa LasB elastase
Elastase [23] = target: T4, Elastase; experiment: Inhibition of Pseudomonas aeruginosa LasB elastase using aminobenzoyl-Ala-Gly-Leu-Ala-p-nitro-benzyl-amide as substrate b microtiter-based fluorimetric assay
Pseudomonas aeruginosa [24] = experiment: Antibacterial activity against Pseudomonas aeruginosa PAO1 assessed as reduction in bacterial growth; type: functional
Pseudomonas aeruginosa [25] = experiment: Antimicrobial activity against Pseudomonas aeruginosa assessed as reduction in bacterial growth; type: functional, organism-based

T4 sequence (P14756 whole entry): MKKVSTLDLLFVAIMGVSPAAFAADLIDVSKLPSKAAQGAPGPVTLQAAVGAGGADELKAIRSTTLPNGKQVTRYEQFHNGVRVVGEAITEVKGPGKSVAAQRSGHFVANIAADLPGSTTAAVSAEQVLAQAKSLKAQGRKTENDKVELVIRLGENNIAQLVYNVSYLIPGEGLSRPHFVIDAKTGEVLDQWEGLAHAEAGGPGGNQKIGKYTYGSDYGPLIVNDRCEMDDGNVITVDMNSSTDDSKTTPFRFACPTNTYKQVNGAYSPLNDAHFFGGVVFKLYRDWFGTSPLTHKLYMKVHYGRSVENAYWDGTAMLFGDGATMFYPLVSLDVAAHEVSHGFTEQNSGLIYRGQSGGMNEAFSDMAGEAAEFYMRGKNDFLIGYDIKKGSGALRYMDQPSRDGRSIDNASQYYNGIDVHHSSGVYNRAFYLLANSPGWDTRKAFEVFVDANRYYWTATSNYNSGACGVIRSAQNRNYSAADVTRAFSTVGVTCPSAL
Chain of Elastase (Pseudomonas aeruginosa (strain ATCC 15692 / PAO1 / 1C / PRS 101 / LMG12228)) (P14756 198-498 limits assumed): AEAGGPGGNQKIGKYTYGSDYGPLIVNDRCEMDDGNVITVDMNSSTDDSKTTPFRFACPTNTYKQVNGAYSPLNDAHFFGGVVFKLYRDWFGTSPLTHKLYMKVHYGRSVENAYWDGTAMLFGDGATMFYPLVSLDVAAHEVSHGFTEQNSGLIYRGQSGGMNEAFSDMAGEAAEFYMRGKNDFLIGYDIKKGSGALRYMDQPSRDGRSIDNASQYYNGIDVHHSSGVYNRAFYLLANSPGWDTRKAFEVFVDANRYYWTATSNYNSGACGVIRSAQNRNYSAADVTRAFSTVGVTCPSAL

O=C(CCCOc1ccc(Br)cc1)NC1CCSC1=O (stereo unspecified)
pIC50 (Pseudomonas aeruginosa [1]): 5.10
Activity (Pseudomonas aeruginosa [2]): 23%

CNc1cc(F)cc2c1[nH]c1nc(Sc3cnc(C)nc3)nc(N3C[C@H]4C[C@@H](N(C)C)[C@H]4C3)c12
MIC (Pseudomonas aeruginosa [3]): 2 µg/mL (≈ 4.18 µM)

CCCCCCCc1cc(=O)c2cc([N+](=O)[O-])ccc2[nH]1
Activity (Pseudomonas aeruginosa [4]): 44%

O=C(Nc1ccc(Nc2ccccc2)cc1)c1ccccc1
pIC50 (Pseudomonas aeruginosa [5]): 4.59
Activity (Pseudomonas aeruginosa [6]): 22%

O=C1CNC(=O)CN1 [DIKETOPIPERAZINE]
inhibition (Pseudomonas aeruginosa [7]): 85%
inhibition [8]: 48%
Activity (Pseudomonas aeruginosa [9]): 66%

CC[C@@H](C)CCCCC(=O)N[C@@H](CCN)C(=O)N[C@H](C(=O)N[C@@H](CCN)C(=O)N[C@H]1CCNC(=O)[C@H]([C@@H](C)O)NC(=O)[C@H](CCN)NC(=O)[C@H](CCN)NC(=O)[C@H](CC(C)C)NC(=O)[C@@H](Cc2ccccc2)NC(=O)[C@H](CCN)NC1=O)[C@@H](C)O (X1-[Dab]T[Dab][Dab][Dab][dF]L[Dab][Dab]T; lactam 4-C)
MIC (Pseudomonas aeruginosa [10]): < 2 µg/mL

O=C(CCCc1c[nH]c2ccccc12)N[C@H]1CCOC1=O
inhibition [11]: 66%

COc1ccc(/C=C/C(=O)NC[C@H]2O[C@H](OC)[C@@H](O)[C@@H](O)[C@@H]2O)cc1OC
half-life [12]: 5 min
pKd [13]: 4.96

COc1ccc(-c2ccn(CC[C@](C)(C(=O)NO)S(C)(=O)=O)c(=O)c2)c(F)c1
ED50 (Pseudomonas aeruginosa [14]): < 25 mg/kg

CCCCCCCC[C@@H]1NC(=O)[C@@H](Cc2ccccc2)NC(=O)[C@H](CCN)NC(=O)[C@@H](NC(=O)[C@H](CCN)NC(=O)[C@@H](NC(=O)[C@H](CCN)NC(=O)CCCCCCC)[C@@H](C)O)CCNC(=O)[C@H]([C@@H](C)O)NC(=O)[C@H](CCN)NC(=O)[C@H](CCN)NC1=O (Octanoyl-[Dab]T[Dab][Dab][Dab][dF][Gly(octyl)][Dab][Dab]T; lactam 4-C)
MIC (Pseudomonas aeruginosa [10]): < 2 µg/mL

OC[C@H]1O[C@@H](OCc2cn([C@H]3[C@H](O)[C@@H](O)[C@H](c4cn([C@H]5[C@H](O)[C@@H](O)[C@H](n6cc([C@@H]7O[C@H](CO)[C@@H](n8cc(CO[C@@H]9O[C@H](CO)[C@H](O)[C@H](O)[C@H]9O)nn8)[C@H](O)[C@H]7O)nn6)O[C@@H]5CO)nn4)O[C@@H]3CO)nn2)[C@H](O)[C@@H](O)[C@H]1O
K [15]: 28 nM

O=c1c2ccccc2[se]n1-c1ccccc1 [EBSELEN]
Activity (Pseudomonas aeruginosa [16]): 80%

CCCCCCCCCC(=O)NC1CCCC1 [N-CYCLOPENTYLDECANAMIDE]
inhibition at 250 µM (Pseudomonas aeruginosa [17]): 100%
inhibition (Pseudomonas aeruginosa [18]): 64%
inhibition [19]: 77%
inhibition (Pseudomonas aeruginosa [20]): 87%

CCN(CC)S(=O)(=O)c1cc(C(=O)Nc2ccccc2C(=O)O)ccc1Br
pIC50 [21]: 4.19

NC(=O)[C@H](Cc1ccc(O)cc1)NC(=O)[C@H](Cc1ccccc1)NC(=O)CS
pIC50 (Elastase [22]): 5.22
pKi (Elastase [23]): 7.39

CC(=O)Oc1cccc(C(=O)NCCCC(CCCNC(=O)c2cccc(OC(C)=O)c2OC(C)=O)(CCCNC(=O)c2cccc(OC(C)=O)c2OC(C)=O)NC(=O)CCC(=O)N[C@@H](C(=O)N[C@@H]2C(=O)N3[C@@H]2SC(C)(C)[C@@H]3C(=O)O)c2ccccc2)c1OC(C)=O
MIC (Pseudomonas aeruginosa [24]): > 200 µM
MIC (Pseudomonas aeruginosa [25]): 0.39 µM (≈ 0.505 µg/mL)

Reference: ChEMBL document CHEMBL5257018, “Novel Strategies for the Treatment of Pseudomonas aeruginosa Infections” (J Med Chem, 2016)
